# According to US20240360133A1, “FUSED TRICYCLIC COMPOUND, PREPARATION METHOD THEREFOR AND APPLICATION THEREOF IN MEDICINE” (Jiangsu Hengrui Pharmaceuticals Co., Ltd., priority 2020, published 2024):
# Target: T1, human TLR9 (Homo sapiens, UniProt Q9NR96)
# T1 construct: host or cells: HEK-Blue hTLR9 (HEK293)
# T1 sequence (Q9NR96 26-1032): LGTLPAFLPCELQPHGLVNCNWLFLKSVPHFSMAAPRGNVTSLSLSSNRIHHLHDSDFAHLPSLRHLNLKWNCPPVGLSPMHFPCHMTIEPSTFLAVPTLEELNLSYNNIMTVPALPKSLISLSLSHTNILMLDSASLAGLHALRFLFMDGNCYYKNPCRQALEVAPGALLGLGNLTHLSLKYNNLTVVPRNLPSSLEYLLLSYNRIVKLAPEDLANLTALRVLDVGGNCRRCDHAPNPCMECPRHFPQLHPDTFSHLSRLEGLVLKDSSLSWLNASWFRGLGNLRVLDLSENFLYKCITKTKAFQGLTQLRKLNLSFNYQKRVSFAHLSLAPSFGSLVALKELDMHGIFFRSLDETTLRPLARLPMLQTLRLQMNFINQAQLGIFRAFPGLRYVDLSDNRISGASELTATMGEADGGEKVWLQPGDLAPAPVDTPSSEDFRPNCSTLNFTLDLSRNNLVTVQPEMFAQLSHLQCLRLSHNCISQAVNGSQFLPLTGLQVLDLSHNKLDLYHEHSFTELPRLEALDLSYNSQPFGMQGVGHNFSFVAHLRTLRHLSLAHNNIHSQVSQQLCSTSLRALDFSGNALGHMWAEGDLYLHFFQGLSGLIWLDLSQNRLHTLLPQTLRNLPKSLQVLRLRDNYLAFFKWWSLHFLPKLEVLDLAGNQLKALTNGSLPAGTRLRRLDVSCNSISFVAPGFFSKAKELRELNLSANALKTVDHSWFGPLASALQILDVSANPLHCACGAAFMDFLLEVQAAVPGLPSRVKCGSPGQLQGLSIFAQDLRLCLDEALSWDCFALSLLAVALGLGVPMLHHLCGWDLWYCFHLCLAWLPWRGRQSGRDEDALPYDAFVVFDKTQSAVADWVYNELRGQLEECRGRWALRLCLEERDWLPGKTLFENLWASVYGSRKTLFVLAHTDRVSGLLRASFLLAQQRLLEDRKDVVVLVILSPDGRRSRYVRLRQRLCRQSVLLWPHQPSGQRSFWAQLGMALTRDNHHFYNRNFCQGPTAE
# Assay: Inhibitory effect on human TLR9 activation pathway (HEK-Blue hTLR9 SEAP reporter)
# Format: cell-based
# Settings: HEK-Blue hTLR9 cells, 1 μM CpG ODN2006, 20 h, SEAP OD620
# Procedure: • 1. HEK-Blue™ hTLR9 cell (Invivogen) • 2. CpG ODN2006 (Invivogen) • 3. Alkaline phosphatase detection medium (Quanti-Blue Detection. Invivogen) • 4. Blasticidin (Invivogen) • 5. Zeocin (Invivogen) • 6. Normocin (Invivogen) • 7. DMEM/HIGH Glucose (GE Healthcare) • 8. Fetal bovine serum (FBS, Gibco) • 9. Phosphate-buffered saline (Shanghai BasalMedia Technologies Co., Ltd.) • 10. Sterile purified water (made in-house by Shanghai Hengrui) • 11. 15 mL centrifuge tube (Corning) • 12. 96-well formulating plate (Corning) • 13. 96-well fat-bottom cell culture plate (Corning) • 14. Constant-temperature cell incubator (Thermo scientific) • 15. Constant-temperature incubator (Shanghai Yiheng Scientific Instruments Co., Ltd.) • 16. PHERAstar FS microplate reader (BMG Labtech)
# HEK-Blue™ hTLR9 cells were purchased from Invivogen. These cells are HEK293 cells transfected with the human Toll-like receptor 9 (TLR9) gene and the secreted alkaline phosphatase reporter gene (SEAP). The alkaline phosphatase reporter gene (SEAP) is under the regulation of the IFN-β minimal promoter comprising 5 NF-kB and AP-1 binding sites. Upon activation of TLR9 with an agonist, SEAP secretion is induced via downstream NF-kB and AP-1. Ater addition of an antagonist compound, the pathway described above is inhibited, and SEAP secretion is reduced. The activity of the compounds for the TLR9 pathway was evaluated by measuring OD620 through the SEAP substrate.
# 20 mM test compounds dissolved in 100% DMSO were serially diluted with 100% DMSO to 2000, 400, 80, 16, 3.2, 0.64, 0.128, 0.0256 IM, with blank wells containing 100% DMSO. […] The cells were cultured at 37° C. for 1-2 min, dispersed by pipetting, transferred to a 15 mL centrifuge tube, and counted, and the cell density was adjusted to 4.8×10^5/mL with the DMEM/HIGH glucose medium containing 10% inactivated FBS. […] Then the OD620 absorbance readings were taken on a microplate reader. The inhibition rate was calculated using the following formula: […]
row,IC50 [nM],SMILES
1,74,"Cc1cc(-c2[nH]c3cc4c(nc3c2C(C)C)CN(CCc2ccc(N3CCNCC3)nc2)CC4)cc(C)n1 [Example 4, 2-(2,6-Dimethylpyridin-4-yl)-3-isopropyl-6-(2-(6-(piperazin-4-yl)pyridin-3-yl)ethyl)-5,6,7,8-tetrahydro-1H-pyrrolo[3,2-b][1,7]naphthyridine]"
2,87,"Cc1cc(-c2[nH]c3cc4c(nc3c2C(C)C)CN(Cc2ccc(N3CCNCC3)cn2)CC4)cc(C)n1 [Example 5, 2-(2,6-Dimethylpyridin-4-yl)-3-isopropyl-6-((5-(piperazin-1-yl)pyridin-2-yl)methyl)-5,6,7,8-tetrahydro-1H-pyrrolo[3,2-b][1,7]naphthyridine]"
3,90,"Cc1cc(-c2[nH]c3cc4c(nc3c2C(C)C)CN(CC23CCC(N)(CC2)CC3)CC4)cc(C)n1 [Example 7, 4-((2-(2,6-Dimethylpyridin-4-yl)-3-isopropyl-1,5,7,8-tetrahydro-6H-pyrrolo[3,2-b][1,7]naphthyridin-6-yl)methyl)bicyclo[2.2.2]octyl-1-amine]"
